# Read-outs that look alike come from different tables or passages of the source.
# How the values were obtained:
# [1] = system: seborrheic blepharitis patients; conditions: cited from earlier work
# [2] = system: lower eyelid of the rabbits; conditions: rabbit, in vivo
# Experimental: The composition is prepared by the combination of selenium disulfide (SeS2) in combination with Petrolatum base (and in the absence of surface acting agents). Compositions comprising various concentrations of selenium disulfide are prepared, such as 0.1 wt. %, 0.5 wt. %, 1 wt. %, 1.5 wt. %, 2 wt. %, and 2.5 wt. %.
# Various compositions prepared as described above are administered to the eye or eyelid (e.g., margin thereof) of albino rabbits. Various compositions are administered to distinct cohorts using various treatment protocols, such as based on frequency of administration (e.g., once daily, twice daily, every other day, and once weekly) and volume of administration (e.g., <25 μL or >25 μL per administration). Compositions lacking selenium disulfide are administered to a separate cohort to establish a control.
# Albino rabbits are evaluated, and an accurate volume of the composition is ejected from a device (e.g., micropipette) and is delivered to the lower eyelid of the rabbits (FIG. 2). […] In one example, the volume is ˜25 μL (equivalent to 20 mg in weight). The rabbits are examined daily.
# rabbit dermis = conditions: in vivo; cited from earlier work
# [3] = system: lower eyelid of the right eye
# Experimental: The eye was treated with lubricants and local NSAID, and the keratitis resolved within 48 hours.
# [4] = 5 μL, twice-weekly or once-daily, 3 months
# lower eyelid = conditions: rabbit, in vivo
# Excerpt: On a subsequent study to Example 6, concentrations ranging from 0.5 wt. % to 2.5 wt. % were used on New-Zealand rabbits, once daily to twice weekly for 28 days.
structure (smiles),measurement,setting,value
"S=[Se]=S [SeS2, selenium disulfide]",tolerability of ointment on the lids,"[1]; 0.5 weight percent ointment (Abbott), all patients complained of burning of the conjunctiva (Rychener)",too strong
same,epithelial keratitis,"[1]; human, in vivo",6 cases
same,epithelial keratitis persisting as long as a week,"[1]; human, in vivo",1 cases
same,epithelial keratitis persisting for a matter of days,"[1]; human, in vivo",2 cases
same,"epithelial keratitis, transient","[1]; human, in vivo",4 cases
same,"keratitis, conjunctivitis with erythematous and swollen lids","[1]; human, in vivo",Two
same,patients developing moderately severe conjunctivitis,"[1]; human, in vivo",1%
same,side effect across the studies,"[1]; human, in vivo",self-limiting keratitis
same,animals with corneal staining,[2],5/6
same,clinical or microscopic findings,[2],no clinical or microscopic findings
same,"signs of keratitis, including red and swollen eyelids",[2],all animals showed signs of keratitis
same,dermal irritation,rabbit dermis,did not appear to be irritant to rabbit dermis
same,time until pain was reported,"[3]; 2.5 wt. % SeS2 with petrolatum, 25 μL (20 mg), one healthy person",About 4 hours
same,finding on clinical examination,"[3]; 2.5 wt. % SeS2 with petrolatum, 25 μL (20 mg), multiple punctate over the center exposed part of the cornea",keratitis was observed
same,time to resolution of keratitis,"[3]; 2.5 wt. %, 25 μL, eye treated with lubricants and local NSAID",≤ 48 h
same,safety and tolerability (independent Data Review Committee),"[4]; 0.1 wt. %, nine patients",safe and well tolerated
same,safety and tolerability (independent Data Review Committee),"[4]; 0.5 wt. %, ten patients",safe and well tolerated
same,safety and tolerability (independent Data Review Committee),"[4]; 1 wt. %, nine patients",safe and well tolerated
same,ophthalmic observations compared with Example 6,lower eyelid,safer
